These results are taken from patent publication US4401595A, “4-Allyl azetidinone intermediate for β-lactam antibacterial agents” (Beecham Group Limited, priority 1977, dated 1983).

Values after ≈ are worked out from the molar mass of the structure shown. Like-named read-outs stand apart in the source and are kept apart here. Where only a bound is given, the exact number is not on record here.

As usually defined, the IC50 is the concentration at which inhibition is half-maximal. Read a high IC50 as a need for much substance.

The test system of test [1] is Staph. aureus Russell. In words: MIC in agar. It is filed as cell-based. The note with it: Staphylococcus aureus, read-out: MIC, concentration required to inhibit the growth.
For test [2], the system named is Strep. pyogenes. Briefly: MIC in agar. It is filed as cell-based. To be noted: Streptococcus pyogenes, Strep. pyogenes (strain not given), read-out: concentration required to inhibit the growth.
Test [3] relates to Strep pneumoniae. In words: MIC in agar. The format is cell-based. To be noted: read-out: concentration required to inhibit the growth.
Test [4] addresses β-lactamase, Enterobacter P99 (Enterobacter cloacae, UniProt P05364). In words: β-lactamase inhibition I50. It is filed as biochemical.
Test [5] has as its target β-lactamase, Escherichia coli JT4 (Escherichia coli, UniProt P62593). Briefly: β-lactamase inhibition I50. It is filed as biochemical.
Test [6] deals with β-lactamase, Pseudomonas aeruginosa A (Pseudomonas aeruginosa, UniProt P24735). Briefly: β-lactamase inhibition I50. The format is biochemical.
β-lactamase, Pseudomonas aeruginosa A, sequence (P24735 27-397): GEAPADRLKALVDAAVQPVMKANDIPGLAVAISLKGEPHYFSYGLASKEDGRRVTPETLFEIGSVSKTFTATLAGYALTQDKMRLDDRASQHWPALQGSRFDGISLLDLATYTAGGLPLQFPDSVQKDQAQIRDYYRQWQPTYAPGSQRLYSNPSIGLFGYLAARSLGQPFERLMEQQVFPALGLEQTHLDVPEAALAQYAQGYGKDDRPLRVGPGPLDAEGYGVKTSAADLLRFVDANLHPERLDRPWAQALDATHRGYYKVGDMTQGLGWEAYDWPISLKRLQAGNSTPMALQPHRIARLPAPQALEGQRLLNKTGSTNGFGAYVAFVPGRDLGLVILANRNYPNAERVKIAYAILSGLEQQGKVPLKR
For test [7], the target named is β-lactamase, Proteus mirabilis C889. In words: β-lactamase inhibition I50. It is filed as biochemical.
For test [8], the target named is β-lactamase, Staphylococcus aureus Russell (Staphylococcus aureus, UniProt P00807). Briefly: β-lactamase inhibition I50. The format is biochemical.
β-lactamase, Staphylococcus aureus Russell, sequence (P00807 25-281): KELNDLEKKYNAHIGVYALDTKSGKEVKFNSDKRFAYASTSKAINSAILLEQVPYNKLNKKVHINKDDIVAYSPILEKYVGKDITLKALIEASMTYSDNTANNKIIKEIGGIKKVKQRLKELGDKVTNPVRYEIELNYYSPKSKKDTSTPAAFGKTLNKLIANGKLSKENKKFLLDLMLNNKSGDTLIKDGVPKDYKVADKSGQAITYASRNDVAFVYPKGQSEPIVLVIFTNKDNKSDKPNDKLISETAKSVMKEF
Test [9] has as its target β-lactamase, Pseudomonas dalgleish (Pseudomonas aeruginosa, UniProt P16897). Briefly: β-lactamase inhibition I50. The format is biochemical.
Test [10] addresses β-lactamase, Klebsiella aerogenes E70. In words: β-lactamase inhibition I50. The format is biochemical.
In test [11] the test system is Staph. aureus Oxford. In words: MIC in agar. It is filed as cell-based. The note with it: Staphylococcus aureus, read-out: concentration required to inhibit the growth.
Test [12] deals with Citrobacter freundii E8. In words: MIC in agar. The format is cell-based. To be noted: read-out: MIC, concentration required to inhibit the growth.
In test [13] the test system is Proteus morganii I 580. Briefly: MIC in agar. It is filed as cell-based. To be noted: Morganella morganii, I580, read-out: concentration required to inhibit the growth.
In test [14] the test system is Proteus rettgeri WM16. Briefly: MIC in agar. The format is cell-based. To be noted: Providencia rettgeri, read-out: concentration required to inhibit the growth.
Test [15] concerns Salmonella typhimurium. Briefly: MIC in agar. It is filed as cell-based. To be noted: Salmonella enterica, Salmonella typhimurium (strain not given), read-out: concentration required to inhibit the growth.
For test [16], the system named is Klebsiella aerogenes. Briefly: MIC in agar. It is filed as cell-based. The note with it: Klebsiella aerogenes (strain not given), read-out: concentration required to inhibit the growth.
Test [17] deals with Serratia marcescens US20. Briefly: MIC in agar. The format is cell-based.
Test [18] has as its system Proteus mirabilis C977. Briefly: MIC in agar. It is filed as cell-based. To be noted: read-out: concentration required to inhibit the growth.
The test system of test [19] is Shigella sonnei MB 11967. Briefly: MIC in agar. It is filed as cell-based. The note with it: MB11967, read-out: MIC, concentration required to inhibit the growth.
In test [20] the test system is Proteus vulgaris WO 91. In words: MIC in agar. The format is cell-based. The note with it: WO91, read-out: concentration required to inhibit the growth.
Test [21] deals with Enterobacter cloacae N1. In words: MIC in agar. The format is cell-based. The note with it: read-out: concentration required to inhibit the growth.
The subject of test [22] is E. coli 0111. Briefly: MIC in agar. The format is cell-based. The note with it: Escherichia coli, read-out: concentration required to inhibit the growth.
Test [23] relates to Staph. aureus 1517. Briefly: MIC in agar. It is filed as cell-based. To be noted: Staphylococcus aureus, read-out: MIC, concentration required to inhibit the growth.
The test system of test [24] is Klebsiella aerogenes A. Briefly: MIC in agar. It is filed as cell-based. The note with it: read-out: MIC, concentration required to inhibit the growth.
Test [25] deals with Strep faecalis I. Briefly: MIC in agar. To be noted: read-out: concentration required to inhibit the growth. The format is cell-based.
The subject of test [26] is Strep pyogenes CN10. In words: MIC in agar. It is filed as cell-based. The note with it: read-out: concentration required to inhibit the growth.
Test [27] deals with Bacillus subtilis A. Briefly: MIC in agar. The note with it: read-out: MIC, concentration required to inhibit the growth. The format is cell-based.
Test [28] relates to Salmonella typhimurium CT10. In words: MIC in agar. It is filed as cell-based. To be noted: Salmonella enterica, read-out: concentration required to inhibit the growth.
Test [29] has as its system Pseudomonas aeruginosa A. In words: MIC in agar. The format is cell-based. To be noted: read-out: concentration required to inhibit the growth.
The mark [30] stands for this setting: Serratia marcescens US20, read-out: concentration required to inhibit the growth.

β-lactamase, Escherichia coli JT4, sequence (P62593 24-286 limits assumed): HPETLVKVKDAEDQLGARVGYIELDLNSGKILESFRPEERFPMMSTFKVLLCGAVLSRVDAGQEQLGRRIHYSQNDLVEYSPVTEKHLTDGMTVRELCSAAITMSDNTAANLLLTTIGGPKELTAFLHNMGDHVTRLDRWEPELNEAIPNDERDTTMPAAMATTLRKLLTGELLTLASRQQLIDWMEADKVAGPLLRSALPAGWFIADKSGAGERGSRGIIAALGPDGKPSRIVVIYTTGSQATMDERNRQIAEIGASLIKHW
β-lactamase, Enterobacter P99, sequence (P05364 21-381): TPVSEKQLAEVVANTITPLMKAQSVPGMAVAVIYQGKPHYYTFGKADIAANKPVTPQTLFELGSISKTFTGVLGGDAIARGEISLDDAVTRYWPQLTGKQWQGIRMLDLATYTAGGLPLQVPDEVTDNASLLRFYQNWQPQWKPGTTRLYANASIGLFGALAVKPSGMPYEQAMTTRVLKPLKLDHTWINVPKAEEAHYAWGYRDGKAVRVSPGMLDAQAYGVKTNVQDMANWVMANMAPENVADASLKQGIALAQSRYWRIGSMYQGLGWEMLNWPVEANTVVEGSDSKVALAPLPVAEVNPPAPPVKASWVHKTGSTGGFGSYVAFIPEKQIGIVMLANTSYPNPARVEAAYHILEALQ
β-lactamase, Pseudomonas dalgleish, sequence (P16897 18-288): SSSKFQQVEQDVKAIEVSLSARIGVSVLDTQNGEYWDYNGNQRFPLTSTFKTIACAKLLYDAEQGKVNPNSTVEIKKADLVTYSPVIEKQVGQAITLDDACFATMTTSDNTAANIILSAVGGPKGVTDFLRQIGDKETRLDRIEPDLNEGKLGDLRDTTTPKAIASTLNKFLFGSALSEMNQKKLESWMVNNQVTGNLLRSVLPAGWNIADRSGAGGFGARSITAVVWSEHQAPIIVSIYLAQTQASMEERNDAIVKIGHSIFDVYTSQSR

Turning to `COC(=O)/C=C/CC1C(=O)N2C(C(=O)OCc3ccc([N+](=O)[O-])cc3)=CCC12` (stereo not shown) [53a, p-Nitrobenzyl 6-(3-methoxycarbonyl-2-propen-1-yl)-7-oxo-1-azabicyclo[3,2,0]hept-2-ene-2-carboxylate], the MIC in [1] was 2.46 µg/mL (≈ 6.37 µM); in test [2], 0.8 µg/mL (≈ 2.07 µM); in [3], 7.4 µg/mL (≈ 19.2 µM).

Take `O=CCC1C(=O)N2C(C(=O)OCc3ccccc3)=CCC12` (stereo not shown) [compound 4, Benzyl 6-(2-oxoethyl)-7-oxo-1-azabicyclo[3,2,0]hept-2-ene-2-carboxylate]: the IC50 in [4] is 5.61 µM; in [5] it was below 4.21 µM; in [6], above 140 µM; in test [8], above 35.1 µM; in test [9], 3.51 µM. Moreover, the figures for the “β-lactamase inhibition I50” value in test [7] and in test [10] were 2.1 µg/mL and above 40 µg/mL, respectively.

Turning to `N#C/C=C/C[C@H]1C(=O)N2C(C(=O)OC3OC(=O)c4ccccc43)=CC[C@@H]12` (relative stereo) [compound 61, Phthalidyl 6-(3-cyano-2-propen-1-yl)-7-oxo-1-azabicyclo[3,2,0]hept-2-ene-2-carboxylat], the MIC in [11] amounted to 2.4 µg/mL (≈ 6.85 µM); in [12] it was 7.3 µg/mL (≈ 20.8 µM); in test [13], 22 µg/mL (≈ 62.8 µM); in test [14], 22 µg/mL (≈ 62.8 µM); in test [15], 7 µg/mL (≈ 20 µM); in [1], 2.4 µg/mL (≈ 6.85 µM). Besides, the MIC amounted to 7.3 µg/mL (≈ 20.8 µM) in [16]; 22 µg/mL (≈ 62.8 µM) in test [17] (setting [30]); 66.6 µg/mL (≈ 190 µM) in test [18]; 22 µg/mL (≈ 62.8 µM) in [19]; 66.6 µg/mL (≈ 190 µM) in test [20]; 22 µg/mL (≈ 62.8 µM) in [21]. The MIC in [22] was found to be 7.3 µg/mL (≈ 20.8 µM).

In the case of `COC(=O)/C=C/CC1C(=O)N2C(C(=O)OCC(Cl)(Cl)Cl)=CCC12` (stereo not shown) [compound 8, 2,2,2-Trichloroethyl-6-(3-methoxycarbonyl-2-propen-1-yl)-7-oxo-1-azabicyclo[3,2,0]hept-2-ene-2-carboxylate], the MIC in test [11] is at most 2 µg/mL; in [12] it was 20 µg/mL (≈ 52.3 µM); in test [23] it was at most 2 µg/mL; in [24], 20 µg/mL (≈ 52.3 µM); in test [25], 20 µg/mL (≈ 52.3 µM); in [1] it was at most 2 µg/mL. Besides, the MIC in test [26], in test [19], in [3] and in test [27] was 20 µg/mL (≈ 52.3 µM) throughout.

With `O=C(OCc1ccccc1)C1=CC[C@@H]2[C@H](C(O)c3ccccc3)C(=O)N12` (stereo partly shown) [compound 30, Benzyl 6-(1-hydroxy-1-phenylmethyl)-7-oxo-1-azabicyclo[3,2,0]hept-2-ene-2-carboxylate], the “β-lactamase inhibition I50” value in [7] amounted to 0.27 µg/mL. This compound also had an IC50 in test [8] of 0.149 µM.

As to `N#C/C=C/C[C@H]1C(=O)N2C(C(=O)OCc3ccccc3)=CC[C@@H]12` (relative stereo) [compound 56, Benzyl 6-(3-cyano-2-propen-1-yl)-7-oxo-1-azabicyclo[3,2,0]hept-2-ene-2-carboxylat], the MIC is at most 2 µg/mL in test [11]; 20 µg/mL (≈ 64.9 µM) in test [12]; 20 µg/mL (≈ 64.9 µM) in test [13]; 20 µg/mL (≈ 64.9 µM) in [14]; at most 2 µg/mL in test [23]; 20 µg/mL (≈ 64.9 µM) in test [24]. In addition, the MIC is at most 2 µg/mL in [1]; 20 µg/mL (≈ 64.9 µM) in test [17] (setting [30]); 20 µg/mL (≈ 64.9 µM) in [18]; 20 µg/mL (≈ 64.9 µM) in [19]; 20 µg/mL (≈ 64.9 µM) in test [21]; 20 µg/mL (≈ 64.9 µM) in [22]. Also, the MIC in [28] and in [27] was 20 µg/mL (≈ 64.9 µM) throughout.

As to `COC(=O)/C=C/C[C@H]1C(=O)N2C(C(=O)OC3OC(=O)c4ccccc43)=CC[C@@H]12` (relative stereo) [compound 41, Phthalidyl 6-(3-methoxycarbonyl-2-propen-1-yl)-7-oxo-1-azabicyclo[3,2,0]hept-2-ene-2-carboxylate], the MIC in [11] was at most 0.8 µg/mL; in test [23], at most 0.8 µg/mL; in test [24], 50 µg/mL (≈ 130 µM); in [1], at most 0.8 µg/mL; in test [26], at most 0.8 µg/mL; in test [18] it was 100 µg/mL (≈ 261 µM). In addition, the MIC in test [19] was 50 µg/mL (≈ 130 µM); in [22], 50 µg/mL (≈ 130 µM); in test [28], 50 µg/mL (≈ 130 µM); in test [27], 25 µg/mL (≈ 65.2 µM).

On to `O=C(OCc1ccccc1)C1=CC[C@H]2[C@@H](C3(O)CCCCC3)C(=O)N12` (relative stereo) [compound 34, Benzyl 6-(1-hydroxycyclohex-1-yl)-7-oxo-1-azabicyclo[3,2,0]hept-2-ene-2-carboxylate], for which the half-inhibitory concentration (IC50) in [4] is 14.6 µM; in test [5], 46.9 µM; in test [6], 4.1 µM; in test [8] it was 13.5 µM.

`COC(=O)/C=C/CC1C(=O)N2C(C(=O)OCOC(=O)C(C)(C)C)=CCC12` (stereo not shown) [compound 52, Pivaloyloxymethyl 6-(3-methoxycarbonyl-2-propen-1-yl)-7-oxo-1-azabicyclo[3,2,0]hept-2-ene-2-carboxylate]: the MIC amounted to 2 µg/mL (≈ 5.47 µM) in test [11]; 2 µg/mL (≈ 5.47 µM) in test [23]; 20 µg/mL (≈ 54.7 µM) in [24]; 2 µg/mL (≈ 5.47 µM) in test [1]; 20 µg/mL (≈ 54.7 µM) in test [19]; 20 µg/mL (≈ 54.7 µM) in test [22]. Besides, the MIC in test [28] and in test [27] was 20 µg/mL (≈ 54.7 µM) each time.

`COC(=O)/C=C/CC1C(=O)N2C(C(=O)OCc3ccccc3)=CCC12` (stereo not shown) [compound 5, Benzyl 6-(3-methoxycarbonyl-2-propen-1-yl)-7-oxo-1-azabicyclo[3,2,0]hept-2-ene-2-carboxylate]: the MIC in test [12] was 20 µg/mL (≈ 58.6 µM); in [23], 2 µg/mL (≈ 5.86 µM); in test [24], 20 µg/mL (≈ 58.6 µM); in [1] it was 2 µg/mL (≈ 5.86 µM); in test [19] it was 20 µg/mL (≈ 58.6 µM); in [27], 20 µg/mL (≈ 58.6 µM).

For the compound `CC(C)(O)[C@H]1C(=O)N2C(C(=O)OCc3ccccc3)=CC[C@@H]12` (relative stereo) [Example 4 cis-isomer, Benzyl 6-(2-hydroxy-2-propyl)-7-oxo-1-azabicyclo[3,2,0]hept-2-ene-2-carboxylate], the MIC in test [11] was at most 2 µg/mL; in [24] it was at most 2 µg/mL; in [1], at most 2 µg/mL; in [17] (setting [30]), 20 µg/mL (≈ 66.4 µM); in [19], at most 2 µg/mL; in test [21], 20 µg/mL (≈ 66.4 µM).

With `O=C(OC1OC(=O)c2ccccc21)C1=CCC2CC(=O)N12` (stereo not shown) [compound 81, Phthalidyl 7-oxo-1-azabicyclo[3,2,0]hept-2-ene-2-carboxylate], the MIC in [11] was 20 µg/mL (≈ 70.1 µM); in [12], 20 µg/mL (≈ 70.1 µM); in [24] it was 20 µg/mL (≈ 70.1 µM); in test [1] it was 20 µg/mL (≈ 70.1 µM); in test [17] (US20, Serratia marcescens VS20, read-out: concentration required to inhibit the growth), 20 µg/mL (≈ 70.1 µM); in test [18], 20 µg/mL (≈ 70.1 µM). In addition, the MIC in test [21] was 20 µg/mL (≈ 70.1 µM); in test [29], 160 µg/mL (≈ 561 µM); in test [22], 20 µg/mL (≈ 70.1 µM); in [28], 20 µg/mL (≈ 70.1 µM); in test [27] it was 20 µg/mL (≈ 70.1 µM).
